We go through seven molecules from patent publication US20150133509A1, “TREE TRUNK INJECTION” (NIPPON SODA CO., LTD., priority 2012, published 2015).

Where two headings read alike, the source gives them in different places.

Assay [1] concerns Raffaelea quercivora. Put plainly: Flat plate antifungal test (PDA medium). It counts as cell-based. Particulars: for inhibition at 1 ppm / inhibition at 10 ppm / inhibition at 100 ppm / inhibition at 0.01 ppm / inhibition at 0.1 ppm: Dryadomyces quercivorus, read-out: Inhibition rate of hyphal elongation; for antifungal effect on Raffaelea quercivora at low concentrations: concentrations of less than about 1 ppm; for inhibition at 0.01 ppm: 0.01 ppm in PDA medium. Here is the method:
The tree trunk injection agents was obtained by dissolving triflumizole to be each concentration of 100 ppm 10 ppm, 1 ppm, 0.1 pmm, and 0.01 ppm in solution for PDA (potato dextrose agar) medium. These tree trunk injection agents were poured into Petri dishes with inner diameter of 9 cm, and allowed to solidify to produce plate mediums with diameter of 9 cm. In this medium, the flora disk of Raffaelea quercivora was plated. This was cultured statically for 3 days to 4 days at 25° C. Then, the diameter of the flora was measured, and the inhibition rate of hyphal elongation was calculated. The inhibition rate of hyphal elongation (%) was calculated based on the formula: ((flora diameter of untreated group−flora diameter of medium containing triflumizole)/flora diameter of untreated group)×100.

For assay [2], the system named is fungi which cause Laurel wilt. Particulars: Non-Patent Document 1; cited from earlier work.
The mark [3] stands for this setting: 1 ppm in PDA medium, 3 to 4 days at 25° C.
Where [4] appears, read: 10 ppm in PDA medium, 3 to 4 days at 25° C.
[5] abbreviates: 100 ppm in PDA medium, 3 to 4 days at 25° C.
Where [6] appears, read: 0.1 ppm in PDA medium, 3 to 4 days at 25° C.

For `CCCCC(O)(Cn1cncn1)c1ccc(Cl)cc1Cl` (stereo not shown) [hexaconazole], the inhibition at 1 ppm in assay [1] (setting [3]) turned out to be 33%. Also, the inhibition at 10 ppm in assay [1] (setting [4]) was 98%. The inhibition at 100 ppm in assay [1] (setting [5]) came out at 100%. Moreover, the “antifungal effect on Raffaelea quercivora at low concentrations” value (“antifungal effect” below) in assay [1] is listed as “not exhibited any antifungal effect”.

Take `CC1(C)CCC(Cc2ccc(Cl)cc2)C1(O)Cn1cncn1` (stereo not shown) [metconazole]: the inhibition at 0.01 ppm in assay [1] (3 to 4 days at 25° C.) is 35%. The inhibition at 0.1 ppm in assay [1] (setting [6]) is 59%. For the same molecule, in assay [1] (setting [3]), the inhibition at 1 ppm was found to be 97%. Also, the inhibition at 10 ppm in assay [1] (setting [4]) is 98%. The inhibition at 100 ppm in assay [1] (setting [5]) is 100%.

Turning to `CCCCC(C#N)(Cn1cncn1)c1ccc(Cl)cc1` (stereo not shown) [myclobutanil], the inhibition at 1 ppm in assay [1] (setting [3]) stood at 44%. In assay [1] (setting [4]), the inhibition at 10 ppm was determined as 96%. Further, the inhibition at 100 ppm in assay [1] (setting [5]) was 100%. Moreover, the “antifungal effect” value in assay [1] is given as “not exhibited any antifungal effect”.

With `CCCC1COC(Cn2cncn2)(c2ccc(Cl)cc2Cl)O1` (stereo not shown) [propiconazole], the “effectiveness for fungi which cause Laurel wilt” value in assay [2] is recorded as “highly effective”.

In the case of `FC(F)C(F)(F)OCC(Cn1cncn1)c1ccc(Cl)cc1Cl` (stereo not shown) [tetraconazole], the inhibition at 1 ppm in assay [1] (setting [3]) is 60%. The inhibition at 10 ppm in assay [1] (setting [4]) was found to be 100%. Moreover, the inhibition at 100 ppm in assay [1] (setting [5]) came out at 100%. In assay [1], the “antifungal effect” value was “not exhibited any antifungal effect”.

Take `CCCOC/C(=N\c1ccc(Cl)cc1C(F)(F)F)n1ccnc1` [triflumizole]: the inhibition at 0.01 ppm in assay [1] (3 to 4 days at 25° C.) stood at 25%. Further, the inhibition at 0.1 ppm in assay [1] (setting [6]) is 95%. Further, the inhibition at 1 ppm in assay [1] (setting [3]) came to 96%. Besides, the inhibition at 10 ppm in assay [1] (setting [4]) was 100%. In addition, the inhibition at 100 ppm in assay [1] (setting [5]) is 100%.

Take `O=CNC(N1CCN(C(NC=O)C(Cl)(Cl)Cl)CC1)C(Cl)(Cl)Cl` (stereo not shown) [triforine]: in assay [1], the inhibition at 0.1 ppm is 0%, the inhibition at 1 ppm came out at 0%, the inhibition at 10 ppm is 26% and the inhibition at 100 ppm was found to be 100%. In addition, in assay [1], the “antifungal effect” value is listed as “not exhibited any antifungal effect”.

The inhibition is the drop in the measured response relative to a control, in per cent.
